Assay results: paper PMC3139667, “A Screen against Leishmania Intracellular Amastigotes: Comparison to a Promastigote Screen and Identification of a Host Cell-Specific Hit” (PLoS Neglected Tropical Diseases, 2011)
Entries after “also recorded” stand apart in the source; their conditions may differ. Like-named read-outs stand apart in the source and are kept apart here.

Key:
[1] = test system: L. donovani intracellular amastigotes; assay: Intracellular amastigote high-throughput image-based assay in infected THP-1 macrophages; type: cell-based, Leishmania donovani; settings: for GI50: read-out: GI50 Intracellular amastigote
Experimental: (§1) Sterile, black, 96-well, clear bottom plates (Greiner Bio-One) were seeded with exponentially growing THP-1 (5×10^5cells/ml). THP-1 were treated with 0.1 µM phorbol myristate acetate (PMA, Sigma) at 37°C for 48 h to achieve differentiation into adherent, non-dividing macrophages. Maturation of THP-1 cells towards monocyte-macrophage like cells is essential to avoid parasitized cells being overgrown by replicating cells. After activation by PMA, cells were washed and incubated with complete RPMI medium containing stationary phase L. donovani promastigotes at a macrophage/promastigote ratio of 1/15. After 4 h incubation at 37°C, non-internalized promastigotes were removed by 2–3 successive washes with RPMI containing 5% FBS and 5% horse serum. Test compounds (10 µM), positive control (2 µM amphotericin B) or negative control (1% DMSO) were then added to the cultures using a Biomek FXp liquid handler (Beckman Coulter). Cultures were incubated at 37°C for 72 h. Cells were then washed with phosphate-buffered saline (PBS), fixed for 30 minutes with 4% formaldehyde, rinsed again with PBS, stained for 2 h with 4′,6′-diamidino-2-phenylindole (DAPI 300 nM) and finally washed with PBS. […] Images were acquired with an INCell Analyzer 1000 automated epi-fluorescent microscope (G.E. Healthcare). The excitation and emission filters used to detect DAPI were 350/50 nm and 460/40 nm respectively. Eight image fields were acquired per well with a 20X objective. The proprietary INCell Developer Toolbox 1.7 software was used for image analysis. Segmentation parameters were set to identify host nuclei with a minimum area of 250 µm^2 and parasite kinetoplast with an average area of 1 µm^2. The intensity of parasite nucleus was too low to be detected with a 20X objective. A border, representing the boundary of the cell, was drawn around the nucleus (total area between 700 and 2000 µm^2). Only parasites found within this area were included in the calculation to eliminate extracellular parasites. False positive parasite detection in the nucleus was also excluded from the calculation. Host cell nuclei and parasite kinetoplasts were counted and the ratio of parasites DNA to host nuclei was selected as the measurement output. Percentage inhibition of parasite growth was calculated as [1-(P/hcx-P/hc^+)/(P/hc^−-P/hc^+)]*100 where P/hcx, P/hc^+ and P/hc^− are parasite per host cell ratio for every well, positive control (amphotericin B) and negative control (DMSO) respectively. Calculation of Z' factor and GI50 curve fitting were carried out as described above.

[2] = test system: L. donovani promastigotes; assay: Promastigote high-throughput ATP-bioluminescence assay; type: cell-based, Leishmania donovani; settings: for GI50: read-out: GI50 Promastigote
Experimental: L. donovani promastigotes from an exponentially growing culture were diluted to 10^6/ml in RPMI containing 10% FBS and 10% BHT. The diluted culture (99 µl/well) was dispensed in sterile 96-well flat white opaque assay plates (Greiner Bio-One) using a WellMate multichannel dispenser (Matrix). 1 µl of 1 mM test compound dissolved in DMSO was added to the plates for a final concentration of 10 µM compound and 1% DMSO. Amphotericin B was added as a positive control (final concentration 2 µM, 1% DMSO) and as a negative control, 1 µl DMSO was added (1% final concentration). Compounds and controls were added to the assay plate with the robotic dispenser Biomek FXp liquid handler (Beckman Coulter). Promastigotes were incubated with the compounds for 72 h at 27°C. The parasites were then lysed by adding 50 µl of CellTiter-Glo (Promega) and placed on an orbital shaker for 5 min at room temperature. After lysis, the resulting ATP-bioluminescence was measured using the Analyst HT plate reader (Molecular Devices). Percentage inhibition of parasite growth was calculated for each well as [1-(RLUx-RLU^+)/(RLU^--RLU^+)]*100 where RLUx, RLU^+ and RLU^- are respectively the Relative Light Units for each well, positive (amphotericin B) and negative (DMSO) controls. A screening window coefficient, denoted Z' factor, was used to evaluate the performance of the assay. The Z' factor, calculated as 1-(3σc++3σc−)/(µc+−µc−) where σc+, σc−, µc+ and µc− are respectively the standard deviation and mean values of positive and negative controls, is reflective of the assay signal dynamic range and the data variation associated with signal measurement. […] GI50 curve fitting was carried out using GraphPad Prism 4 Software (GraphPad Software Inc., San Diego, CA).

THP-1 = assay: Host cell toxicity: THP-1 host nuclei counts in the image-based assay; settings: for GI50: read-out: GI50 THP-1; for Selectivity: ratio between parasite GI50 and THP-1 GI50
Experimental: as §1

[3] = test system: L. donovani axenic amastigotes; assay: Dose response study against axenic amastigotes (CellTiter-Glo); type: cell-based, Leishmania donovani; settings: for GI50: read-out: GI50 Axenic amastigote
Experimental: L. donovani axenic amastigotes (5×10^5 cells/ml in axenic amastigote media) were dispensed in sterile 96-well flat white opaque assay plates (Greiner Bio-One) using a WellMate multichannel dispenser (Matrix). […] 1% DMSO and amphotericin B (2 µM, 1% DMSO final concentration) were added as negative and positive controls respectively. Axenic amastigotes were incubated with the compounds for 72 h at 37°C with 5% CO2. Parasite viability was then measured using CellTiter-Glo as described above.

[4] = L. donovani in THP-1, 72 h, parasites per host cell
[5] = ratio between promastigote GI50 and intracellular amastigote GI50, >2 more active against intracellular amastigote, <0.4 more active against promastigotes
[6] = Leishmania donovani, 72 h at 27°C, CellTiter-Glo
[7] = Leishmania donovani, 72 h at 37°C, CellTiter-Glo
[8] = Leishmania donovani, THP-1, 72 h, L. donovani in THP-1, 72 h, parasites per host cell
[9] = PMA-differentiated infected THP-1, 72 h, host nuclei count
[10] = Leishmania donovani, THP-1, 72 h

SMILES	Specificity [1, 5]	GI50 [2, 6]	GI50 (THP-1; Homo sapiens, THP-1, 72 h)	Selectivity (THP-1)	GI50 [3, 7]	GI50 [1, 8]	further results
C[C@@H]1[C@H](O)[C@@H](C)/C=C/C=C/C=C/C=C/C=C/C=C/C=C/[C@H](O[C@@H]2O[C@H](C)[C@@H](O)[C@H](N)[C@@H]2O)C[C@@H]2O[C@](O)(C[C@@H](O)C[C@@H](O)[C@H](O)CC[C@@H](O)C[C@@H](O)CC(=O)O[C@H]1C)C[C@H](O)[C@H]2C(=O)O [Amphotericin B]	1.43	1.61 µM	> 50 µM	44.52	5.42 µM	–	Effect on growth of intracellular L. donovani ([1]; 2 µM, 72 h): significantly inhibited growth; Primary screen against intracellular amastigotes, hit selection ([1]; 10 µM, duplicates, hit = 60% parasite growth inhibition and not more than 20% reduction in THP-1 numbers): active; GI50 [1, 4]: 1.12 µM
CCCCCC[C@H]1C(=O)O[C@H](C)[C@H](NC(=O)c2cccc(NC=O)c2O)C(=O)O[C@@H](C)[C@@H]1OC(=O)CC(C)C [Antimycin A]	0.05	0.1 µM	> 50 µM	500	0.01 µM	2.15 µM	–
CC(=O)OC[C@H]1O[C@@H]([S-])[C@H](OC(C)=O)[C@@H](OC(C)=O)[C@@H]1OC(C)=O.CCP(CC)CC.[Au+] [Auranofin]	0.51	–	–	1.88	–	–	GI50 [1, 4]: 21.8 µM; GI50 ([2]; 72 h at 27°C, CellTiter-Glo): 11.1 µM; GI50 (THP-1; [9]): 20.9 µM; GI50 ([3]; 72 h at 37°C, CellTiter-Glo): > 50 µM
CC(C)(C)c1ccc(S(=O)(=O)/C=C/C#N)cc1 [BAY 11–7085]	–	–	–	32.46	–	–	Specificity [1]: 0.06; GI50 ([2]; 72 h at 27°C, CellTiter-Glo): 1.54 µM; GI50 (THP-1; [9]): > 50 µM; GI50 ([3]; 72 h at 37°C, CellTiter-Glo): 0.42 µM
CCN(CC)c1ccc(C(=C2C=CC(=[N+](CC)CC)C=C2)c2ccccc2)cc1 [Brilliant green]	0.02	0.1 µM	1.64 µM	15.88	0.03 µM	6 µM	–
COc1ccccc1OCCNCC(O)COc1cccc2[nH]c3ccccc3c12 (stereo not shown) [Carvedilol]	2.01	12.4 µM	37.5 µM	6.07	> 16.5 µM	6.16 µM	–
COCc1c(C(C)C)nc(C(C)C)c(/C=C/[C@@H](O)C[C@@H](O)CC(=O)O)c1-c1ccc(F)cc1 [Cerivastatin]	0.22	10.8 µM	7.15 µM	0.66	0.02 µM	> 50 µM	–
[H]/N=C(\N/C(=N/[H])NCCCCCCNC(=N)NC(=N)Nc1ccc(Cl)cc1)Nc1ccc(Cl)cc1 [Chlorhexidine]	1.56	2.81 µM	> 16.5 µM	9.27	4.78 µM	1.79 µM	–
Cc1cc(C2CCCCC2)n(O)c(=O)c1 [Ciclopirox]	0.69	15.2 µM	42 µM	1.90	> 50 µM	22 µM	–
Clc1ccccc1C(c1ccccc1)(c1ccccc1)n1ccnc1 [Clotrimazole]	11.92	12.9 µM	> 16.5 µM	15.32	4.56 µM	1.08 µM	–
C[C@@H]1C[C@@H]([C@H](O)CC2CC(=O)NC(=O)C2)C(=O)[C@@H](C)C1 [Cycloheximide]	2.55	–	21 µM	18.13	–	–	GI50 [1, 10]: 1.15 µM; GI50 ([2]; Leishmania donovani, 72 h): 2.95 µM; GI50 ([3]; Leishmania donovani, 72 h): 0.39 µM
COc1cc2nc(N3CCN(C(=O)C4COc5ccccc5O4)CC3)nc(N)c2cc1OC (stereo not shown) [Doxazocin]	1.69	–	–	3.32	–	–	GI50 [1, 4]: 5 µM; GI50 ([2]; 72 h at 27°C, CellTiter-Glo): 8.45 µM; GI50 (THP-1; [9]): > 16.5 µM; GI50 ([3]; 72 h at 37°C, CellTiter-Glo): > 16.5 µM
CC[C@H]1CN2CCc3cc(OC)c(OC)cc3[C@@H]2C[C@@H]1C[C@H]1NCCc2cc(OC)c(OC)cc21 [Emetine]	–	0.03 µM	1.28 µM	–	1.62 µM	0.082 µM	–
Clc1cc(Cl)c(OCC#CI)cc1Cl [Haloprogin]	0.17	1.05 µM	20 µM	19.04	0.56 µM	6 µM	–
COC(=O)C[C@](O)(CCC(C)(C)O)C(=O)O[C@@H]1C(OC)=C[C@]23CCCN2CCc2cc4c(cc2[C@H]13)OCO4 [Harringtonin]	–	–	–	0.02	–	–	Specificity [1]: 3.39; GI50 [1, 4]: 4.89 µM; GI50 ([2]; 72 h at 27°C, CellTiter-Glo): 16.6 µM; GI50 (THP-1; [9]): 0.1 µM; GI50 ([3]; 72 h at 37°C, CellTiter-Glo): 10.6 µM
Oc1c(Cl)cc(Cl)c(Cl)c1Cc1c(O)c(Cl)cc(Cl)c1Cl [Hexachlorophene]	3.49	–	16.5 µM	–	–	–	GI50 [1, 10]: 4.54 µM; GI50 ([2]; Leishmania donovani, 72 h): 15.9 µM; GI50 ([3]; Leishmania donovani, 72 h): 14.8 µM
CCN(CCCCOC(=O)c1ccc(OC)c(OC)c1)C(C)Cc1ccc(OC)cc1 (stereo not shown) [Mebeverine]	0.81	6.91 µM	> 50 µM	5.88	2.36 µM	8.5 µM	–
CN1C[C@H](CNC(=O)OCc2ccccc2)C[C@@H]2c3cccc4c3c(cn4C)C[C@H]21 [Metergoline]	19.17	15.1 µM	37.1 µM	47.22	> 50 µM	0.78 µM	–
Clc1ccc(COC(Cn2ccnc2)c2ccc(Cl)cc2Cl)c(Cl)c1 (stereo not shown) [Miconazole]	0.48	7.48 µM	> 16.5 µM	1.07	4.73 µM	15.4 µM	–
C=CCN1CC[C@]23c4c5ccc(O)c4O[C@H]2/C(=N/N=C2\CC[C@@]4(O)[C@H]6Cc7ccc(O)c8c7[C@@]4(CCN6CC=C)[C@H]2O8)CC[C@@]3(O)[C@H]1C5 [Naloxonazine]	–	> 50 µM	33.8 µM	9.68	> 50 µM	3.45 µM	Primary screen against intracellular amastigotes, hit selection [1]: complete specificity for the intracellular amastigote stage; Specificity [1]: 14.32; GI50 [1, 4]: 3.49 µM; GI90 intracellular amastigote ([1]; curative concentration): 12.5 µM; Activity against promastigotes (in words) ([2]; dose response, up to 50 µM): no activity; also recorded: completely inactive; GI90 THP-1 (THP-1): 50 µM; Activity against axenic amastigotes (in words) ([3]; dose response, up to 50 µM): no activity
